Test results as given in patent US9034886B2, “4-aminoquinazoline derivatives and uses thereof” (Shanghai Institute of Pharmaceutical Industry, priority 2011, dated 2015).

Experiments:
[1] = test system: A549 human lung cancer cells; test: In vitro anti-proliferative effect, CCK-8 method, A549; type: cell-based; details: Homo sapiens, A549
Method: (§1) The inhibitory activities of the compounds towards Hut78 T lymphocytic leukemia cells, Jurkat E6-1 human T-cell lymphoma, PANC-1 human pancreatic cancer cells, A549 human lung cancer cells, K562 human chronic myelogenous leukemia cells, Hep3B2.1-7 human liver cancer cells, MDA-MB-435s human breast cancer cells. Colo320 human colorectal cancer cell lines, and PC-3 human prostate cancer at two concentrations of 100 μM and 10 μM were determined. The inhibition percentages were obtained through CCK-8 method.

[2] = test system: Jurkat E6-1 human T-cell lymphoma; test: In vitro anti-proliferative effect, CCK-8 method, Jurkat E6-1; type: cell-based; details: Homo sapiens, Jurkat E6.1
Method: as §1

[3] = test system: MDA-MB-435s human breast cancer cells; test: In vitro anti-proliferative effect, CCK-8 method, MDA-MB-435s; type: cell-based; details: Homo sapiens, MDA-MB-435S
Method: as §1

[4] = test system: Hut78 T lymphocytic leukemia cells; test: In vitro anti-proliferative effect, CCK-8 method, Hut78; type: cell-based; details: Homo sapiens, HuT78, read-out: Hut-78 (inhibition %)
Method: as §1

[5] = test system: Hep3B2.1-7 human liver cancer cells; test: In vitro anti-proliferative effect, CCK-8 method, Hep3B; type: cell-based; details: Homo sapiens, Hep3B cell strain, CCK-8 method; for inhibition at 10 µM: compound at 10 μM; for inhibition at 100 µM: compound at 100 μM
Method: as §1

[6] = test system: K562 human chronic myelogenous leukemia cells; test: In vitro anti-proliferative effect, CCK-8 method, K562; type: cell-based; details: Homo sapiens, K562
Method: as §1

[7] = test system: Colo320 human colorectal cancer cell lines; test: In vitro anti-proliferative effect, CCK-8 method, Colo320; type: cell-based; details: Homo sapiens, COLO 320, Colo320 cell strain, CCK-8 method; for inhibition at 10 µM: compound at 10 μM; for inhibition at 100 µM: compound at 100 μM
Method: as §1

[8] = test system: HDACs; test: In vitro inhibition of HDACs (HDAC Inhibitor Drug Screening Kit, Biovision K340-100); type: biochemical; details: for inhibitory activity on HDACs compared with MS-275: concentrations of 2 mM, 200 μM, and 40 μM
Method: The in vitro inhibitory activities of the compounds towards HDACs were tested according to the instructions in the HDAC Inhibitor Drug Screening Kit (Biovision/Catalog #K340-100).
(1) The compounds to be tested were each individually prepared as 2 mM, 200 μM and 40 μM solutions and their inhibitory activities at these concentrations were tested.

[9] = test system: PANC-1 human pancreatic cancer cells; test: In vitro anti-proliferative effect, CCK-8 method, PANC-1; type: cell-based; details: Homo sapiens, PANC-1
Method: as §1

[10] = test system: PC-3 human prostate cancer; test: In vitro anti-proliferative effect, CCK-8 method, PC-3; type: cell-based; details: Homo sapiens, PC-3 cell strain, CCK-8 method; for inhibition at 10 µM: compound at 10 μM; for inhibition at 100 µM: compound at 100 μM
Method: as §1

[11] = target: HDAC1 (Homo sapiens (Human), UniProt Q13547); test: In vitro inhibition of subtype HDAC1 (HDAC1 Inhibitor Drug Screening Kit, Biovision); type: biochemical; details: for inhibition at 1 µM / inhibition at 10 µM: read-out: % Inhibition towards HDAC1
HDAC1, sequence (Q13547 whole entry): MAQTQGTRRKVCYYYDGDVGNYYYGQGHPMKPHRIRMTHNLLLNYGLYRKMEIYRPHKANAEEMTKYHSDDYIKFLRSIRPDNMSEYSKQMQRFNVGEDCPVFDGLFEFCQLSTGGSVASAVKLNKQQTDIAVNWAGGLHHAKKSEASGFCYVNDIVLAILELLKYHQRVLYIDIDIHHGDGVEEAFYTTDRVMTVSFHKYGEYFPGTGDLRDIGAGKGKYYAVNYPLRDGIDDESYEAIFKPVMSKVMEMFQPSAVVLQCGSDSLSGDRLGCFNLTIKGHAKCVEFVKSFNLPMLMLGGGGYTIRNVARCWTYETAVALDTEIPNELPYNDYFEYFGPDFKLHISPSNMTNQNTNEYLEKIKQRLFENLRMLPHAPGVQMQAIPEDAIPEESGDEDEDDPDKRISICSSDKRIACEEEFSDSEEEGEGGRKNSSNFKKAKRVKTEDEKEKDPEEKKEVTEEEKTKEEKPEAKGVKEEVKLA
Method: The in vitro inhibitory activities of the compounds towards the subtype HDAC1 were tested according to the instructions in the HDAC1 Inhibitor Drug Screening Kit (Biovision).
(1) The compounds to be tested were each individually prepared as 10 μM and 1 μM solutions and their inhibitory activities at these concentrations were tested.
Each dilution sample was placed in two wells and the enzyme inhibition IC50 of the compound was tested.

Row | SMILES | inhibition at 10 µM [1] [%] | inhibition at 100 µM [1] [%] | inhibition at 10 µM [2] [%] | inhibition at 100 µM [2] [%] | inhibition at 10 µM [3] [%] | inhibition at 100 µM [3] [%] | inhibition at 10 µM [4] [%] | inhibition at 100 µM [4] [%] | inhibition at 10 µM [5] [%] | inhibition at 100 µM [5] [%] | inhibition at 10 µM [6] [%] | inhibition at 100 µM [6] [%] | inhibition at 10 µM [7] [%] | inhibition at 100 µM [7] [%] | Inhibition percentage (%) towards HDACs ([8]; 40 μM) [%] | Inhibition percentage (%) towards HDACs ([8]; 200 μM) [%] | Inhibition percentage (%) towards HDACs ([8]; 2 mM) [%] | inhibition at 10 µM [9] [%] | inhibition at 100 µM [9] [%] | inhibition at 10 µM [10] [%] | other results
1 | Nc1ccccc1NC(=O)c1ccc(Nc2ncnc3ccccc23)cc1 [Compound V-1, N-(2-aminophenyl)-4-(quinazoline-4-amino)benzamide] | 50.6 | 89.7 | 48.5 | 79.3 | 26.7 | 87.5 | 36 | 67.2 | 2.6 | 37.4 | 22.4 | 30.8 | 33.7 | 78.3 | 9.4 | 19.8 | 65.2 | 40.2 | 65.4 | 79.5 | inhibition at 100 µM [10]: 91.5%
2 | Nc1ccc(F)cc1NC(=O)c1ccc(Nc2ncnc3ccccc23)cc1 [Compound V-3, N-(2-amino-5-fluorophenyl)-4-(quinazoline-4-amino)benzamide] | -7.8 | 72.3 | 27.1 | 96 | 4.5 | 85.5 | 18.2 | 92.9 | -12.3 | 59.2 | 51 | 85.1 | -7.1 | 47.2 | 9.5 | 36.0 | 78.2 | 5.7 | 5.5 | 0.6 | inhibition at 100 µM [10]: 36.9%
3 | COc1cccc2ncnc(Nc3ccc(C(=O)Nc4ccccc4N)cc3)c12 [Compound V-7, N-(2-aminophenyl)-4-(5-methoxy-quinazoline-4-amino)benzamide] | -7.4 | 24.9 | 26.4 | 91 | -16.5 | 85.4 | 10.7 | 60.3 | 8.1 | 53.2 | 29.7 | 82.6 | 8.9 | 48.5 | 6.5 | 22.1 | 39.2 | 1.1 | 35.2 | 8.1 | inhibition at 1 µM [11]: 50.1%; inhibition at 10 µM [11]: 78.4%; inhibitory activity against HDAC1 compared with MS-275 ([11]; both concentrations 10 μM and 1 μM): superior to that of MS-275; IC50 [8]: 3.99 µM; inhibition at 100 µM [10]: 49.8%
4 | COc1cccc2ncnc(Nc3ccc(C(=O)Nc4ccncc4N)cc3)c12 [Compound V-8] | -5.9 | 38 | 36.4 | 96.3 | 14.2 | 94.5 | 17.5 | 83.6 | 5 | 90.4 | 56.9 | 94.5 | -1.8 | 86.4 | 8.9 | 41.1 | 46.2 | -1.8 | 34.9 | 29.7 | inhibition at 1 µM [11]: 21.4%; inhibition at 10 µM [11]: 62.7%; IC50 [8]: 7.76 µM; inhibition at 100 µM [10]: 89.3%
5 | COc1cc2ncnc(NCc3ccc(C(=O)Nc4cc(-c5cccs5)ccc4N)cc3)c2cc1OC [Compound V-31, N-[2-amino-5-(2-thienyl)phenyl]-4-[(6,7-dimethoxyquinazoline-4-amino)methyl]benzamide] | 56.3 | 88.8 | 62.4 | 93.7 | 24.2 | 89.2 | 28.2 | 95.8 | -5 | 51.7 | 27.9 | 67.7 | 76.3 | 77 | 3.5 | 17.3 | 69.8 | 20.8 | 50.6 | 6.3 | inhibition at 100 µM [10]: 38.8%
6 | COc1ccc2c(NCc3ccc(C(=O)Nc4ccccc4N)cc3)ncnc2c1 [Compound V-32, N-(2-aminophenyl)-4-[(7-methoxyquinazoline-4-amino)methyl]benzamide] | – | – | – | – | – | – | – | – | – | – | – | – | – | – | 2.2 | 3.1 | 42.5 | – | – | – | –
7 | COc1ccc2ncnc(NCc3ccc(C(=O)Nc4ccccc4N)cc3)c2c1 [Compound V-33, N-(2-aminophenyl)-4-[(6-methoxyquinazoline-4-amino)methyl]benzamide] | – | – | – | – | – | – | – | – | – | – | – | – | – | – | 53.2 | 66.8 | 88.8 | – | – | – | IC50 [8]: 1.01 µM; inhibitory activity according to in vitro IC50 value against HDACs compared with MS-275 [8]: better inhibitory activities than MS-275; inhibitory activity on HDACs compared with MS-275 [8]: significantly stronger inhibitory activities than MS-275
8 | COc1cccc2c(NCc3ccc(C(=O)Nc4cc(F)ccc4N)cc3)ncnc12 [Compound V-35, N-(2-amino-5-fluorophenyl)-4-[(8-methoxyquinazoline-4-amino)methyl]benzamide] | – | – | – | – | – | – | – | – | – | – | – | – | – | – | 10.1 | 47.8 | 81.8 | – | – | – | –
9 | Nc1ccccc1NC(=O)c1ccc(CNc2ncnc3ccc([N+](=O)[O-])cc23)cc1 [Compound V-37, N-(2-aminophenyl)-4-[(6-nitroquinazoline-4-amino)methyl]benzamide] | – | – | – | – | – | – | – | – | – | – | – | – | – | – | 24.0 | 56.1 | 65.7 | – | – | – | –
10 | COCCOc1cc2ncnc(NCc3ccc(C(=O)Nc4ccncc4N)cc3)c2cc1OCCOC [Compound V-39, N-(2-amino-4-pyridyl)-4-[(6,7-dimethoxyethoxyquinazoline-4-amino)methyl]benzamide] | – | – | – | – | – | – | – | – | – | – | – | – | – | – | 34.3 | 58.0 | 85.3 | – | – | – | –
11 | COc1cc2ncnc(NCc3ccc(C(=O)Nc4ccncc4N)cc3)c2cc1OCCCN1CCOCC1 [Compound V-42] | – | – | – | – | – | – | – | – | – | – | – | – | – | – | 17.2 | 46.7 | 90.6 | – | – | – | IC50 [8]: 1.67 µM; inhibitory activity according to in vitro IC50 value against HDACs compared with MS-275 [8]: better inhibitory activities than MS-275; inhibitory activity on HDACs compared with MS-275 [8]: significantly stronger inhibitory activities than MS-275
12 | CC(=O)Nc1ccc2ncnc(NCc3ccc(C(=O)Nc4cc(-c5ccco5)ccc4N)cc3)c2c1 [Compound V-48, N-[2-amino-5-(2-furyl)phenyl]-4-[(6-acetamidoquinazoline-4-amino)methyl]benzamide] | 3.9 | 9.8 | 9.7 | 61.9 | 10 | 26.6 | 75.4 | 87.4 | -14 | 20.5 | 20 | 57.2 | 2.9 | 17.9 | 14.0 | 42.2 | 85.0 | -2.2 | 51.8 | -16.4 | inhibition at 100 µM [10]: 14.8%
